# Data taken from US6440978B2, “Therapeutic agent for dermatitis” (Nippon Zoki Pharmaceutical Co., Ltd., priority 2000, dated 2002).
# Tests used:
# [1] = system: antigen-induced flare-up reaction in a mouse; assay: Suppressive action against antigen-induced flare-up reaction in a mouse; type: in vivo, BALB/c female mice; details: 0.12% ointment
# Procedure: (§1) Seven week old BALB/c female (SPF) mice of were selected as subjects. According to a method of Tanaka, et al. (Allergy, 46, pages 42-48(1997)), egg white albumin (final concentration: 2 μg/mL) and aluminum hydroxide gel (final concentration: 10 mg/mL) were suspended in physiological saline and 0.5 mL of the suspension was administered to effect intraperitoneal sensitization on the first day of the test. On the 14th day of the test, an additional sensitization was carried out under the same conditions. Further, on the 28th day of the test, 25 μL of egg albumin (a 20 μg/mL solution in physiological saline) was intradermally administered to the right ear of a mouse to induce a swelling reaction.
# (§2) This swelling reaction reached its peak at 4 hours after the challenge by the antigen. Even after 24 to 48 hours, a significant swelling reaction was noted as compared with the control in which antigen was merely challenged (not sensitized). […] On the contrary, the swelling from 24 to 48 hours after the challenge is thought to be the so-called delayed-type swelling reaction accompanied by infiltration of eosinophils, neutrophils and lymphocytes. In addition, a flare-up reaction having a peak at 24 hours after the challenge appeared on the ear of the antigen-induced site. Like swelling, flare-up is an important symptom of inflammation. Although the mechanism of the flare-up reaction is ambiguous, it may be a flare-up reaction of a delayed type in view of the time course of its expression. As such, this model animal in which the inflammation of both immediate and delayed types are induced is appropriate as a model animal for atopic dermatitis. In the following experiment, the effectiveness of the therapeutic agent for dermatitis according to the present invention was tested using the said model animal.
# Each of a vehicle (control) and an agent for the test (the therapeutic agent for dermatitis according to the present invention or a positive control) was applied to the antigen-induced site (right auricle) of a mouse to induce a swelling reaction in accordance with Example 2 at 2 hours before and 4 hours after the challenge. The right ear was observed by naked eye and the degree of flare-up was scored according to the following standard:
# 1: in such a degree that a flare-up was confirmed, the color is clear red or pale red and the size was small
# 2: between score 3 and score 1
# 3: color of the flare-up was clearly red and the size of the flare-up was big
# [2] = system: antigen-induced swelling reaction in a mouse ear; assay: Suppressive action against antigen-induced swelling reaction in a mouse ear; type: in vivo, BALB/c female mice
# Procedure: as §1, §2
# Each of a vehicle (control) and a test agent (containing the compound of the present invention or a positive control) was applied to the antigen-induced site (right auricle) of a mouse. A swelling reaction was induced in accordance with Example 2 at 2 hours before and 4 hours after the challenge. After the challenge, the thickness of the swelling induced ear was measured by a Dial Thickness Gauge (manufactured by Ozaki Seisakusho). The intensity of the reaction was expressed in terms of an increase in the auricle thickness by deducting the thickness (early value) measured before the challenge from the thickness of the swelling induced ear. The suppression rate of the test drug for ear swelling was calculated by the following formula:
# Suppression Rate (%)=100 ×[(Ear Thickness Increase of Vehicle-Only-Control)—(Ear Thickness Increase of the Test Group)]/[(Ear Thickness Increase of the Vehicle-Only-Control)—(Ear Thickness Increase of the Challenge-Only-Group)]
# ear of a normal mouse = assay: Influence of repeated application on the ear thickness of a normal mouse; type: in vivo
# Procedure: The therapeutic agent for dermatitis according to the present invention or the positive control (steroid preparation) was applied twice daily to the right ear of a normal mouse for a total of nine times and, 2 hours after the final application, the thickness of the ear was measured.
# [3] = Table 1, 0.12% ointment, 1 hr after challenge
# [4] = Table 1, 0.12% ointment, 8 hr after challenge
# [5] = Table 1, 0.12% ointment, 24 hr after challenge
# [6] = Table 1, 0.12% ointment, 48 hr after challenge
# [7] = Table 2, 0.12% ointment, 24 hr after challenge
# [8] = Table 2, 1% ointment, 24 hr after challenge
# [9] = Table 2, 3% ointment, 24 hr after challenge
compound,measurement,setting,value
"CCCCC(=O)O[C@]1(C(=O)CO)[C@@H](C)C[C@H]2[C@@H]3CCC4=CC(=O)C=C[C@]4(C)[C@@]3(F)[C@@H](O)C[C@@]21C [Positive Control, betamethasone valerate, reference compound]",Suppression Rate of flare-up score at 4 hr after Challenge,[1]; 4 hr after challenge,(25.0%)
same,Flare-up Score at 4 hr after Challenge,"[1]; 4 hr after challenge, score 0-3",0.6 ± 0
same,Suppression Rate of flare-up score at 24 hr after Challenge,[1]; 24 hr after challenge,(40.0%)
same,Flare-up Score at 24 hr after Challenge,"[1]; 24 hr after challenge, score 0-3",1.5 ± 0.2
same,Ear Thickness Increase at 1 hr after Challenge,[2]; [3],8.3 ± 0.7 × 0.01 mm
same,Suppression Rate of ear thickness increase at 1 hr after Challenge,[2]; [3],(45.5%)
same,Ear Thickness Increase at 4 hr after Challenge,"[2]; Table 1, 0.12% ointment",16.3 ± 2.0 × 0.01 mm
same,Suppression Rate of ear thickness increase at 4 hr after Challenge,"[2]; Table 1, 0.12% ointment",(42.0%)
same,Ear Thickness Increase at 8 hr after Challenge,[2]; [4],2.0 ± 1.2 × 0.01 mm
same,Suppression Rate of ear thickness increase at 8 hr after Challenge,[2]; [4],(49.7%)
same,Ear Thickness Increase at 24 hr after Challenge,[2]; [5],5.0 ± 1.0 × 0.01 mm
same,Suppression Rate of ear thickness increase at 24 hr after Challenge,[2]; [5],(80.0%)
same,Ear Thickness Increase at 48 hr after Challenge,[2]; [6],2.0 ± 1.0 × 0.01 mm
same,Suppression Rate of ear thickness increase at 48 hr after Challenge,[2]; [6],(100.0%)
same,Ear Thickness Increase at 4 hr after Challenge,"[2]; Table 2, 0.12% ointment",11.0 ± 0.6 × 0.01 mm
same,Suppression Rate of ear thickness increase at 4 hr after Challenge,"[2]; Table 2, 0.12% ointment",(60.0%)
same,Ear Thickess Increase at 24 hr after Challenge,[2]; [7],6.3 ± 2.4 × 0.01 mm
same,Suppression Rate of ear thickness increase at 24 hr after Challenge,[2]; [7],(65.8%)
same,Ear Thickness,"ear of a normal mouse; 0.12% ointment applied twice daily, nine times in total, 2 hours after final application",18.3 ± 0.5 × 0.01 mm
same,influence of repeated application on auricle thickness,"ear of a normal mouse; positive control ointment, repeated application",significantly reduced the auricle thickness
"Nc1ccc2c(=O)n(Cc3ccccc3Cl)c(=O)n(-c3ccccc3)c2n1 [Compound 2, 7-amino-3-(2-chlorobenzyl)-1,2,3,4-tetrahydro-1-phenylpyrido[2,3-d]pyrimidin-2,4-dione]",Ear Thickness Increase at 4 hr after Challenge,"[2]; Table 2, 1% ointment",19.5 ± 3.2 × 0.01 mm
same,Suppression Rate of ear thickness increase at 4 hr after Challenge,"[2]; Table 2, 1% ointment",(22.2%)
same,Ear Thickess Increase at 24 hr after Challenge,[2]; [8],11.8 ± 2.6 × 0.01 mm
same,Suppression Rate of ear thickness increase at 24 hr after Challenge,[2]; [8],(30.3%)
same,Ear Thickness Increase at 4 hr after Challenge,"[2]; Table 2, 3% ointment",19.3 ± 2.4 × 0.01 mm
same,Suppression Rate of ear thickness increase at 4 hr after Challenge,"[2]; Table 2, 3% ointment",(23.1%)
same,Ear Thickess Increase at 24 hr after Challenge,[2]; [9],8.0 ± 1.4 × 0.01 mm
same,Suppression Rate of ear thickness increase at 24 hr after Challenge,[2]; [9],(54.8%)
